The term inhibition denotes the share of the control response that was lost under treatment. Low readings indicate a response near the control, high ones a response far below the control. For orientation: IC50 means the concentration at which inhibition is half-maximal. A low value points to inhibition by little substance.

In this experiment the target is DPP1 (Homo sapiens (Human), UniProt P53634). In words: DPP1 activity inhibition test on U937 cells. The settings on record: substrate h-Gly-phe-AFC; for inhibition at 0.005 µM: U-937, 5 nM compound; for inhibition at 0.05 µM: U-937, 50 nM compound; for IC50: intracellular enzyme activity. The format is cell-based. The method, then: After incubation at 37° C. for 1 h, add h-Gly-phe-AFC (10 μL) to each well and start reaction.
Chain of DPP1 (P53634 25-463): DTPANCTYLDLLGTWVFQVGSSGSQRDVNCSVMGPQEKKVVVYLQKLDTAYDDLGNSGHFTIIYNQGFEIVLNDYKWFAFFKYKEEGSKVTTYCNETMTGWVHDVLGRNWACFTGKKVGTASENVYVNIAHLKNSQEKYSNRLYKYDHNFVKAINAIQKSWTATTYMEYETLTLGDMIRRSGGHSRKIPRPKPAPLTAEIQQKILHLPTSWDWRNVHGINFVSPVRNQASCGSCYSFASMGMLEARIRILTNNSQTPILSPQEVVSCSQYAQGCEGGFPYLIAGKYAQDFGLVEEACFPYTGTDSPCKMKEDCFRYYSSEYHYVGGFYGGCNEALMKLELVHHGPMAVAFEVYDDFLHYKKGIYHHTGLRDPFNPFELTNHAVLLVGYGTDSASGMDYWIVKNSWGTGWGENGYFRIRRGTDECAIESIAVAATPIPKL

`Cn1c(=O)oc2ccc(-c3ccc(C[C@@H](C#N)NC(=O)[C@@H]4CNCCCO4)cc3)cc21` [AZD7986, Brensocatib, reference compound] displayed an inhibition at 0.005 µM of 30 to 75% and an inhibition at 0.05 µM of 75 to 100%.

`N#C[C@H](Cc1ccc(-c2ccc3nccn3c2)cc1)NC(=O)[C@@H]1CNCCCO1` [Compound D01]: the “Average Inhibition % @5 nM” value (5 nM compound) is “− (“−”: inhibition % < 30%)”. Further, for the setting “50 nM compound”, the “Average Inhibition % @50 nM” value is recorded as “− (“−”: inhibition % < 30%)”.

Molecule `N#C[C@H](Cc1ccc(-c2ccc3oc(=O)n(C4COC4)c3c2)cc1)NC(=O)[C@@H]1CNCCCO1` [Compound D03] returned an inhibition at 0.005 µM of less than 30% and an inhibition at 0.05 µM of 30 to 75%.

Turning to `N#C[C@H](Cc1ccc(-c2ccc3nncn3c2)cc1)NC(=O)[C@@H]1CNCCCO1` [Compound D05], the inhibition at 0.005 µM is less than 30% and the inhibition at 0.05 µM was less than 30%.

In the case of `N#C[C@H](Cc1ccc(-c2ccc3nnnn3c2)cc1)NC(=O)[C@@H]1CNCCCO1` [Compound D06], the inhibition at 0.005 µM is less than 30% and the inhibition at 0.05 µM was less than 30%.

Molecule `N#C[C@H](Cc1ccc(-c2ccc3c(c2)OC(F)(F)O3)cc1)NC(=O)[C@@H]1CNCCCO1` [Compound D07] came in with an inhibition at 0.005 µM of less than 30% and an inhibition at 0.05 µM of 30 to 75%.

In turn, `N#C[C@H](Cc1ccc(-c2ccc3c(c2)CC(=O)C3)cc1)NC(=O)[C@@H]1CNCCCO1` [Compound D08] returned an inhibition at 0.005 µM of less than 30% and an inhibition at 0.05 µM of 30 to 75%.

Turning to `N#C[C@H](Cc1ccc(-c2ccc3c(c2)C(=O)CO3)cc1)NC(=O)[C@@H]1CNCCCO1` [Compound D10], the inhibition at 0.005 µM is less than 30% and the inhibition at 0.05 µM was in the range of 30 to 75%.

Molecule `CN1Cc2cc(-c3ccc(C[C@@H](C#N)NC(=O)[C@@H]4CNCCCO4)cc3)sc2C1=O` [Compound D12] showed an inhibition at 0.005 µM of less than 30% and an inhibition at 0.05 µM of less than 30%.

Consider `N#C[C@H](Cc1ccc(-c2cc3c(s2)CNC3=O)cc1)NC(=O)[C@@H]1CNCCCO1` [Compound D13], for which the inhibition at 0.005 µM is less than 30% and the inhibition at 0.05 µM was less than 30%.

As to `CN1Cc2sc(-c3ccc(C[C@@H](C#N)NC(=O)[C@@H]4CNCCCO4)cc3)cc2C1=O` [Compound D14], the inhibition at 0.005 µM is less than 30% and the inhibition at 0.05 µM fell in the range of 30 to 75%.

`CN1CCN(S(=O)(=O)c2ccc(-c3ccc(C[C@@H](C#N)NC(=O)[C@@H]4CNCCCO4)cc3)cc2)CC1` [Compound D16] displayed an inhibition at 0.005 µM of less than 30% and an inhibition at 0.05 µM of 30 to 75%.

The molecule `Cn1c(=O)oc2cc(-c3ccc(C[C@@H](C#N)NC(=O)[C@@H]4CNCCCO4)cc3)ccc21` [Compound D17] showed an inhibition at 0.005 µM of less than 30% and an inhibition at 0.05 µM of 30 to 75%.

As to `CN1CCc2nc(-c3ccc(C[C@@H](C#N)NC(=O)[C@@H]4CNCCCO4)cc3)sc2C1` [Compound D18], the inhibition at 0.005 µM was less than 30% and the inhibition at 0.05 µM lay in the range of 30 to 75%.

On to `N#C[C@H](Cc1ccc(-c2ccc3c(c2)C2(COC2)OC3)cc1)NC(=O)[C@@H]1CNCCCO1` [Compound D22], for which the inhibition at 0.005 µM lay within 30 to 75% and the inhibition at 0.05 µM was 75 to 100%.

As for `CNS(=O)(=O)c1ccc(-c2ccc(C[C@@H](C#N)NC(=O)[C@@H]3CNCCCO3)cc2)cc1` [Compound D23], the inhibition at 0.005 µM is less than 30% and the inhibition at 0.05 µM is less than 30%.

Molecule `CN1CC(n2c(=O)oc3ccc(-c4ccc(C[C@@H](C#N)NC(=O)[C@@H]5CNCCCO5)cc4)cc32)C1` [Compound D24] registered an inhibition at 0.005 µM of 30 to 75% and an inhibition at 0.05 µM of 75 to 100%.

Regarding `CN1CCC2(CC1)OC(=O)c1ccc(-c3ccc(C[C@@H](C#N)NC(=O)[C@@H]4CNCCCO4)cc3)cc12` [Compound D25], the inhibition at 0.005 µM lay in the range of 30 to 75% and the inhibition at 0.05 µM was 75 to 100%.

Consider `CN1CCC2(CC1)OCc1ccc(-c3ccc(C[C@@H](C#N)NC(=O)[C@@H]4CNCCCO4)cc3)cc12` [Compound D27], for which the inhibition at 0.005 µM is less than 30% and the inhibition at 0.05 µM fell in the range of 30 to 75%.

For the molecule `N#C[C@H](Cc1ccc(-c2ccc3c(n2)C2(CCN(C4COC4)CC2)OC3=O)cc1)NC(=O)[C@@H]1CNCCCO1` [Compound D28], the inhibition at 0.005 µM lay within 30 to 75% and the inhibition at 0.05 µM was in the range of 75 to 100%.

`CN1CCC2(CC1)OC(=O)c1ccc(-c3ccc(C[C@@H](C#N)NC(=O)[C@@H]4CNCCCO4)cc3)nc12` [Compound D29]: the inhibition at 0.005 µM lay within 30 to 75% and the inhibition at 0.05 µM is 75 to 100%.

In the case of `N#C[C@H](Cc1ccc(-c2ccc3c(n2)C2(CCN(C4COC4)CC2)OC3)cc1)NC(=O)[C@@H]1CNCCCO1` [Compound D30], the inhibition at 0.005 µM is less than 30% and the inhibition at 0.05 µM lay within 30 to 75%.

`CN1CCC2(CC1)OCc1ccc(-c3ccc(C[C@@H](C#N)NC(=O)[C@@H]4CNCCCO4)cc3)nc12` [Compound D31] registered an inhibition at 0.005 µM of less than 30% and an inhibition at 0.05 µM of 30 to 75%.

`C[C@H](O)Cn1c(=O)oc2ccc(-c3ccc(C[C@@H](C#N)NC(=O)[C@@H]4CNCCCO4)cc3)cc21` [Compound D32] displayed an inhibition at 0.005 µM of less than 30% and an inhibition at 0.05 µM of 30 to 75%.

In turn, `CO[C@@H](C)Cn1c(=O)oc2ccc(-c3ccc(C[C@@H](C#N)NC(=O)[C@@H]4CNCCCO4)cc3)cc21` [Compound D33] returned an inhibition at 0.005 µM of less than 30% and an inhibition at 0.05 µM of 30 to 75%.

In turn, `C[C@@H](O)Cn1c(=O)oc2ccc(-c3ccc(C[C@@H](C#N)NC(=O)[C@@H]4CNCCCO4)cc3)cc21` [Compound D34] had an inhibition at 0.005 µM of less than 30% and an inhibition at 0.05 µM of 30 to 75%.

`CO[C@H](C)Cn1c(=O)oc2ccc(-c3ccc(C[C@@H](C#N)NC(=O)[C@@H]4CNCCCO4)cc3)cc21` [Compound D35] returned an inhibition at 0.005 µM of less than 30% and an inhibition at 0.05 µM of 30 to 75%.

`CN1CCC2(C1)OCc1ccc(-c3ccc(C[C@@H](C#N)NC(=O)[C@@H]4CNCCCO4)cc3)cc12` (stereo partly shown) [Compound D36]: the inhibition at 0.005 µM is less than 30% and the inhibition at 0.05 µM was 30 to 75%.

`CN1CCC2(C1)OC(=O)c1ccc(-c3ccc(C[C@@H](C#N)NC(=O)[C@@H]4CNCCCO4)cc3)cc12` (stereo partly shown) [Compound D37] displayed an inhibition at 0.005 µM of less than 30% and an inhibition at 0.05 µM of 30 to 75%.

As for `CN1CCC2(CC1)OC(=O)c1cnc(-c3ccc(C[C@@H](C#N)NC(=O)[C@@H]4CNCCCO4)cc3)cc12` [Compound D38], the inhibition at 0.005 µM is less than 30% and the inhibition at 0.05 µM is 30 to 75%.

`CN1CCC2(CC1)OCc1cnc(-c3ccc(C[C@@H](C#N)NC(=O)[C@@H]4CNCCCO4)cc3)cc12` [Compound D39] displayed an inhibition at 0.005 µM of less than 30% and an inhibition at 0.05 µM of 30 to 75%.

As for `CC1(C)OC(=O)c2ccc(-c3ccc(C[C@@H](C#N)NC(=O)[C@@H]4CNCCCO4)cc3)cc21` [Compound D42], the inhibition at 0.005 µM was in the range of 30 to 75%, the inhibition at 0.05 µM fell in the range of 75 to 100% and the IC50 is 15 nM.

As to `N#C[C@H](Cc1ccc(-c2ccc3c(c2)C(=O)CC3)cc1)NC(=O)[C@@H]1CNCCCO1` [Compound D43], the inhibition at 0.005 µM was less than 30% and the inhibition at 0.05 µM lay in the range of 30 to 75%.

In turn, `N#C[C@H](Cc1ccc(-c2ccc3c(c2)C(=O)OC3)cc1)NC(=O)[C@@H]1CNCCCO1` [Compound D45] came in with an inhibition at 0.005 µM of less than 30% and an inhibition at 0.05 µM of 30 to 75%.

The molecule `Cn1c(=O)oc2ccc(-c3ccc(C[C@@H](C#N)NC(=O)[C@@H]4CNCC5(CC5)CO4)nc3)cc21` [Compound D47] gave an inhibition at 0.005 µM of less than 30% and an inhibition at 0.05 µM of 75 to 100%.

Consider `Cn1c(=O)oc2ccc(-c3ccc(C[C@@H](C#N)NC(=O)[C@@H]4CNCC5(CC5)CO4)nn3)cc21` [Compound D48], for which the inhibition at 0.005 µM is 30 to 75%, the inhibition at 0.05 µM fell in the range of 75 to 100% and half-maximal inhibition (IC50) was put at 12 nM.

The molecule `Cn1c(=O)oc2ccc(-c3ccc(C[C@@H](C#N)NC(=O)[C@@H]4CNCc5ccccc5O4)cc3)cc21` [Compound D49] displayed an inhibition at 0.005 µM of less than 30% and an inhibition at 0.05 µM of 30 to 75%.

For the molecule `Cn1c(=O)oc2ccc(-c3ccc(C[C@@H](C#N)NC(=O)[C@@H]4CNCC(C)(C)CO4)cc3)cc21` [Compound D50], the IC50 was more than 1000 nM.

With `Cn1c(=O)oc2ccc(-c3ccc(C[C@@H](C#N)NC(=O)[C@@H]4CNCC(F)(F)CO4)cc3)cc21` [Compound D51], the IC50 is more than 1000 nM.

The molecule `Cn1c(=O)oc2ccc(-c3ccc(C[C@@H](C#N)NC(=O)[C@@H]4COCC[C@@H]4N)cc3)cc21` [Compound D52] came in with an inhibition at 0.005 µM of less than 30% and an inhibition at 0.05 µM of 30 to 75%.

`Cn1c(=O)oc2ccc(-c3ccc(C[C@@H](C#N)NC(=O)[C@@H]4CNCCCO4)s3)cc21` [Compound D53] registered an IC50 of 16 nM.

In the case of `Cn1c(=O)oc2ccc(-c3ccc(C[C@@H](C#N)NC(=O)[C@@H]4CNC[C@H](F)CO4)cc3)cc21` [Compound D54], the inhibition at 0.005 µM was 30 to 75% and the inhibition at 0.05 µM was 30 to 75%.

In turn, `Cn1c(=O)oc2ccc(-c3ccc(C[C@@H](C#N)NC(=O)[C@@H]4CNC[C@@H](F)CO4)c(F)c3)cc21` [Compound D55] yielded a half-inhibitory concentration (IC50) of 6.4 nM.

`N#C[C@H](Cc1ccc(-c2ccc3c(c2)C2(CN(C4COC4)C2)OC3=O)cc1F)NC(=O)[C@@H]1CNCCCO1` [Compound D56] yielded an inhibition at 0.005 µM of less than 30% and an inhibition at 0.05 µM of 30 to 75%.

In turn, `Cn1cnc(-n2c(=O)oc3ccc(-c4ccc(C[C@@H](C#N)NC(=O)[C@@H]5CNCCCO5)c(F)c4)cc32)c1` [Compound D62] yielded an inhibition at 0.005 µM of less than 30% and an inhibition at 0.05 µM of 30 to 75%.

`Cn1cnc(-n2c(=O)oc3ccc(-c4ccc(C[C@@H](C#N)NC(=O)[C@@H]5CNCCCO5)c(F)c4)cc32)n1` [Compound D64] gave an inhibition at 0.005 µM of less than 30% and an inhibition at 0.05 µM of less than 30%.

Molecule `CO/N=C1\CCc2cc(-c3ccc(C[C@@H](C#N)NC(=O)[C@@H]4CNCCCO4)c(F)c3)ccc21` [Compound D65] had an inhibition at 0.05 µM of 30 to 75%.

These data come from patent publication US20250101011A1, “PEPTIDYL NITRILE COMPOUND AND USE THEREOF” (SHANGHAI YIDIAN PHARMACEUTICAL TECHNOLOGY DEVELOPMENT CO., …, priority 2022, published 2025).
